# Earlier results, collected in patent US9169245B2, “Inhibitors of PDE4 enzyme and antagonists of muscarinic M3 receptor” (CHIESI FARMACEUTICI S.p.A., priority 2012, dated 2015).
# Key:
# [1] = COPD patients, oral, given over 4 weeks
# [2] = patients with severe disease, frequent exacerbations and mucus hypersecretion
compound,measurement,setting,value
O=C(Nc1c(Cl)cncc1Cl)c1ccc(OC(F)F)c(OCC2CC2)c1 [roflumilast],reduction of the numbers of neutrophils in sputum,[1],36%
same,improvement of FEV 1,[2],approximately 50 ml
same,reduction of exacerbation,[2],about 15%
